Measurements from PubChem BioAssay AID1259407 (Chemical Carcinogenesis Research Information System (CCRIS), 2018).
Active and inactive are the calls of the source. No rule for the calls is given here.

Test system: CCRIS mutagenicity, Ames/micronucleus/aberration tests
Experiment: CCRIS mutagenicity studies
[1] = Test System: AMES SALMONELLA TYPHIMURIUM, Strain/Indicator: TA98, Metabolic Activation: NONE, Method: PREINCUBATION
[2] = Test System: AMES SALMONELLA TYPHIMURIUM, Strain/Indicator: TA98, Metabolic Activation: NONE, Method: STANDARD PLATE
[3] = Test System: AMES SALMONELLA TYPHIMURIUM, Strain/Indicator: TA98, Metabolic Activation: RAT, LIVER, S-9, AROCLOR 1254, Method: STANDARD PLATE
[4] = Test System: AMES SALMONELLA TYPHIMURIUM, Strain/Indicator: TA100, Metabolic Activation: NONE, Method: PREINCUBATION
[5] = Test System: AMES SALMONELLA TYPHIMURIUM, Strain/Indicator: TA100, Metabolic Activation: NONE, Method: STANDARD PLATE
[6] = Test System: AMES SALMONELLA TYPHIMURIUM, Strain/Indicator: TA100, Metabolic Activation: RAT, LIVER, S-9, AROCLOR 1254, Method: STANDARD PLATE
[7] = Test System: AMES SALMONELLA TYPHIMURIUM, Strain/Indicator: TA102, Metabolic Activation: NONE, Method: PREINCUBATION
[8] = Test System: AMES SALMONELLA TYPHIMURIUM, Strain/Indicator: TA102, Metabolic Activation: RAT, LIVER, S-9, AROCLOR 1254, Method: PREINCUBATION
[9] = Test System: AMES SALMONELLA TYPHIMURIUM, Strain/Indicator: TA98, Metabolic Activation: RAT, LIVER, S-9, AROCLOR 1254, Method: PREINCUBATION

In the case of `CC(=O)OC(C)=O`, the mutagenic call (Test System: AMES SALMONELLA TYPHIMURIUM, Strain/Indicator: TA98, Metabolic Activation: HAMSTER, LIVER, S-9, AROCLOR 1254, Method: STANDARD PLATE) is reported as “inactive; negative”, the mutagenic call [1] is reported as “inactive; negative” and the mutagenic call [2] is reported as “inactive; negative”. The mutagenic call [3] was “inactive; negative”, the mutagenic call (Test System: AMES SALMONELLA TYPHIMURIUM, Strain/Indicator: TA98, Metabolic Activation: RAT, LIVER, S-9, SODIUM PHENOBARBITAL AND 5,6-BENZOFLAVONE, Method: PREINCUBATION) was “inactive; negative” and the mutagenic call (Test System: AMES SALMONELLA TYPHIMURIUM, Strain/Indicator: TA100, Metabolic Activation: HAMSTER, LIVER, S-9, AROCLOR 1254, Method: STANDARD PLATE) was “inactive; negative”. For the same compound, the mutagenic call [4] was “inactive; negative”, the mutagenic call [5] was “inactive; negative” and the mutagenic call [6] was “inactive; negative”. For the same compound, the mutagenic call (Test System: AMES SALMONELLA TYPHIMURIUM, Strain/Indicator: TA100, Metabolic Activation: RAT, LIVER, S-9, SODIUM PHENOBARBITAL AND 5,6-BENZOFLAVONE, Method: PREINCUBATION) was “inactive; negative”, the mutagenic call [7] was “inactive; negative” and the mutagenic call (Test System: AMES SALMONELLA TYPHIMURIUM, Strain/Indicator: TA102, Metabolic Activation: RAT, LIVER, S-9, SODIUM PHENOBARBITAL AND 5,6-BENZOFLAVONE, Method: PREINCUBATION) was “inactive; negative”. For the same compound, the mutagenic call (Test System: AMES SALMONELLA TYPHIMURIUM, Strain/Indicator: TA104, Metabolic Activation: NONE, Method: PREINCUBATION) was “inactive; negative”, the mutagenic call (Test System: AMES SALMONELLA TYPHIMURIUM, Strain/Indicator: TA104, Metabolic Activation: RAT, LIVER, S-9, SODIUM PHENOBARBITAL AND 5,6-BENZOFLAVONE, Method: PREINCUBATION) was “inactive; negative” and the mutagenic call (Test System: AMES SALMONELLA TYPHIMURIUM, Strain/Indicator: TA1535, Metabolic Activation: HAMSTER, LIVER, S-9, AROCLOR 1254, Method: STANDARD PLATE) was “inactive; negative”. For the same compound, the mutagenic call (Test System: AMES SALMONELLA TYPHIMURIUM, Strain/Indicator: TA1535, Metabolic Activation: NONE, Method: PREINCUBATION) was “inactive; negative”, the mutagenic call (Test System: AMES SALMONELLA TYPHIMURIUM, Strain/Indicator: TA1535, Metabolic Activation: NONE, Method: STANDARD PLATE) was “inactive; negative” and the mutagenic call (Test System: AMES SALMONELLA TYPHIMURIUM, Strain/Indicator: TA1535, Metabolic Activation: RAT, LIVER, S-9, AROCLOR 1254, Method: STANDARD PLATE) was “inactive; negative”. For the same compound, the mutagenic call (Test System: AMES SALMONELLA TYPHIMURIUM, Strain/Indicator: TA1535, Metabolic Activation: RAT, LIVER, S-9, SODIUM PHENOBARBITAL AND 5,6-BENZOFLAVONE, Method: PREINCUBATION) was “inactive; negative”, the mutagenic call (Test System: AMES SALMONELLA TYPHIMURIUM, Strain/Indicator: TA1537, Metabolic Activation: HAMSTER, LIVER, S-9, AROCLOR 1254, Method: STANDARD PLATE) was “inactive; negative” and the mutagenic call (Test System: AMES SALMONELLA TYPHIMURIUM, Strain/Indicator: TA1537, Metabolic Activation: NONE, Method: PREINCUBATION) was “inactive; negative”. For the same compound, the mutagenic call (Test System: AMES SALMONELLA TYPHIMURIUM, Strain/Indicator: TA1537, Metabolic Activation: NONE, Method: STANDARD PLATE) was “inactive; negative”, the mutagenic call (Test System: AMES SALMONELLA TYPHIMURIUM, Strain/Indicator: TA1537, Metabolic Activation: RAT, LIVER, S-9, AROCLOR 1254, Method: STANDARD PLATE) was “inactive; negative” and the mutagenic call (Test System: AMES SALMONELLA TYPHIMURIUM, Strain/Indicator: TA1537, Metabolic Activation: RAT, LIVER, S-9, SODIUM PHENOBARBITAL AND 5,6-BENZOFLAVONE, Method: PREINCUBATION) was “inactive; negative”. The mutagenic call (Test System: AMES SALMONELLA TYPHIMURIUM, Strain/Indicator: TA1538, Metabolic Activation: HAMSTER, LIVER, S-9, AROCLOR 1254, Method: STANDARD PLATE) was “inactive; negative”, the mutagenic call (Test System: AMES SALMONELLA TYPHIMURIUM, Strain/Indicator: TA1538, Metabolic Activation: NONE, Method: STANDARD PLATE) was “inactive; negative” and the mutagenic call (Test System: AMES SALMONELLA TYPHIMURIUM, Strain/Indicator: TA1538, Metabolic Activation: RAT, LIVER, S-9, AROCLOR 1254, Method: STANDARD PLATE) was “inactive; negative”. For the same compound, the mutagenic call (Test System: E. COLI, Strain/Indicator: WP2UVRA/PKM101, Metabolic Activation: NONE, Method: PREINCUBATION) was “inactive; negative”, the mutagenic call (Test System: E. COLI, Strain/Indicator: WP2UVRA/PKM101, Metabolic Activation: RAT, LIVER, S-9, SODIUM PHENOBARBITAL AND 5,6-BENZOFLAVONE, Method: PREINCUBATION) was “inactive; negative” and the mutagenic call (Test System: E. COLI, Strain/Indicator: WP2UVRA, Metabolic Activation: NONE, Method: PREINCUBATION) was “inactive; negative”. For the same compound, the mutagenic call (Test System: E. COLI, Strain/Indicator: WP2UVRA, Metabolic Activation: RAT, LIVER, S-9, SODIUM PHENOBARBITAL AND 5,6-BENZOFLAVONE, Method: PREINCUBATION) was “inactive; negative”, the mutagenic call (Test System: MOUSE LYMPHOMA, Strain/Indicator: L5178Y (TK+/TK-), Metabolic Activation: NONE, Method: SUSPENSION/PLATE) was “inactive; negative. reevaluation of results: inconclusive” and the mutagenic call (Test System: Mouse lymphoma, Strain/Indicator: L5178Y (tk+/tk-), Metabolic Activation: Rat, Liver, S-9, Aroclor 1254, Method: Suspension/plate) was “inactive; inconclusive (previous evaluation negative)”.
In the case of `CC(=O)OC/C=C(C)/C=C/C=C(C)/C=C/C1=C(C)CCCC1(C)C`, the mutagenic call (Test System: AMES SALMONELLA TYPHIMURIUM, Strain/Indicator: TA97A, Metabolic Activation: NONE, Method: PREINCUBATION) is reported as “inactive; negative”, the mutagenic call (Test System: AMES SALMONELLA TYPHIMURIUM, Strain/Indicator: TA97A, Metabolic Activation: RAT, LIVER, S-9, AROCLOR 1254, Method: PREINCUBATION) is reported as “inactive; negative” and the mutagenic call [7] is reported as “inactive; negative”. For the same compound, the mutagenic call [8] was “inactive; negative”.
With `Cc1ccc2c(c1)c(C)c1c3ccccc3nc-1n2C` the mutagenic call (Test System: AMES SALMONELLA TYPHIMURIUM, Strain/Indicator: TA97, Metabolic Activation: RAT, LIVER, S-9, AROCLOR 1254, Method: STANDARD PLATE) was “active; positive”, the mutagenic call [3] was “active; positive” and the mutagenic call (Test System: AMES SALMONELLA TYPHIMURIUM, Strain/Indicator: TA102, Metabolic Activation: RAT, LIVER, S-9, AROCLOR 1254, Method: STANDARD PLATE) was “active; positive”.
With `CCC(=O)C(C)=O` the mutagenic call [1] was “inactive; negative”, the mutagenic call [9] was “inactive; negative” and the mutagenic call [4] was “inactive; negative”. The mutagenic call (Test System: AMES SALMONELLA TYPHIMURIUM, Strain/Indicator: TA100, Metabolic Activation: RAT, LIVER, S-9, AROCLOR 1254, Method: PREINCUBATION) was “inactive; negative”, the mutagenic call [7] was “inactive; negative” and the mutagenic call [8] was “inactive; negative”.
With `CCCCOc1c(C(=O)NOC(C)=O)cccc1[N+](=O)[O-]` the mutagenic call [5] was “inactive; negative” and the mutagenic call (Test System: AMES SALMONELLA TYPHIMURIUM, Strain/Indicator: TA100, Metabolic Activation: RAT, S-9, AROCLOR, Method: STANDARD PLATE) was “active; positive”.
With `O=[N+]([O-])c1ccc2ccc3cc4c(c5ccc1c2c35)CCC=C4` the mutagenic call (Test System: AMES SALMONELLA TYPHIMURIUM, Strain/Indicator: TA98 (1,8-DNP6), Metabolic Activation: RAT, LIVER, S-9, AROCLOR 1254, Method: STANDARD PLATE) was “active; positive”, the mutagenic call (Test System: AMES SALMONELLA TYPHIMURIUM, Strain/Indicator: TA98(NR), Metabolic Activation: RAT, LIVER, S-9, AROCLOR 1254, Method: STANDARD PLATE) was “active; positive” and the mutagenic call [2] was “active; positive”. The mutagenic call [3] was “active; positive”, the mutagenic call [5] was “active; positive” and the mutagenic call [6] was “active; positive”.
`C1=CC2OC2c2ccc3c4c5c(cccc5cc3c21)C=C4` (stereo not drawn) was tested, and the mutagenic call [2] was “inactive; negative”, the mutagenic call (Test System: AMES SALMONELLA TYPHIMURIUM, Strain/Indicator: TA98, Metabolic Activation: RAT, LIVER, S-9, AROCLOR 1254 (0.4, 0.8, 1.15 OR 1.5 MG/PLATE), Method: STANDARD PLATE) was “active; positive” and the mutagenic call [3] was “active; positive”.
For `CCn1c(N)nc2c3ncc(C)nc3ccc21`, the mutagenic call [9] was “active; positive”.
